Values quoted from earlier work as cited in patent publication US20130327676A1, “Packaging of Solid Pharmaceutical Preparations Containing the Active Substance Glyceryl Trinitrate” (G. Pohl-Boskamp GmbH & Co. KG, priority 2011, published 2013).

Assays:
[1] = at 20° C.

## O=[N+]([O-])OCC(CO[N+](=O)[O-])O[N+](=O)[O-] [GTN, glyceryl trinitrate]
[1]
  vapor pressure: 0.25 Pa
Polyethylene sealing layer of the packaging material
  active substance originally contained in the tablets found in the polyethylene: 84%
Tablets packaged individually in aluminum foil films with polyethylene sealing layer
  active substance remaining in tablets following storage, of originally contained: less than 10%
